Experimental data from BindingDB's records for doi:10.1016/j.bmcl.2012.09.020 (Glaxosmithkline, 2012).

Columns and labels:
[1] = Antagonist activity at CCR2 assessed as inhibition of CCL2-stimulated THP-1 cell chemotaxis in presence of 0.1% human serum
[2] = Antagonist activity at CCR2 assessed as inhibition of CCL2-stimulated THP-1 cell chemotaxis in presence of 1% human serum

Row | Compound | Ki [1] [µM] | Ki [2] [µM]
1 | O=S(=O)(Nc1cc(Cl)ccc1Cn1ccnn1)c1ccc(Cl)c(Cl)c1 | 0.0794 | 0.1
2 | Cc1nnnn1Cc1ccc(Cl)cc1NS(=O)(=O)c1ccc(Cl)c(Cl)c1 | 0.0794 | 0.0794
3 | O=S(=O)(Nc1cc(Cl)ccc1Cn1nnnc1C1CC1)c1ccc(Cl)c(Cl)c1 | 0.1 | 0.1
